In US20210045385A1, “PYRIDAZINONE-SUBSTITUTED KETOXIMES AS HERBICIDES” (FMC Corporation, priority 2018, published 2021):

Assays:
Assay type in all cases: in vivo
[1] = system: Italian ryegrass (Lolium multiflorum); experiment: Test A preemergence, visual plant response rating; conditions: for Ryegrass, Italian plant response rating: 125 g ai/ha, preemergence, 0 to 100 scale, 0 no effect, 100 complete control; for Ryegrass, Italian plant response rating (0 to 100 scale): 500 g ai/ha Preemergence, approx. 10 days
Procedure, shortened: (§1)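 Formulated in a non-phytotoxic solvent mixture including surfactant, each test chemical was sprayed onto the soil surface after sowing, or onto seedlings 2 to 10 cm high. Roughly 10 days later, plants were compared with untreated controls and rated for injury from 0 (no effect) to 100 (complete control).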

[2] = system: barnyardgrass (Echinochloa crus-galli); experiment: Test A preemergence, visual plant response rating; conditions: for Barnyardgrass plant response rating: 125 g ai/ha, preemergence, 0 to 100 scale, 0 no effect, 100 complete control; for Barnyardgrass plant response rating (0 to 100 scale): 500 g ai/ha Preemergence, approx. 10 days
Procedure, shortened: as §1

[3] = system: foxtail, giant (giant foxtail, Setaria faberii); experiment: Test A preemergence, visual plant response rating; conditions: for Foxtail, Giant plant response rating: 125 g ai/ha, preemergence, 0 to 100 scale, 0 no effect, 100 complete control; for Foxtail, Giant plant response rating (0 to 100 scale): 500 g ai/ha Preemergence, approx. 10 days
Procedure, shortened: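 Ratings use a 0–100 visual scale (100 = complete control) against untreated controls, scored about 10 days after greenhouse treatment. Test chemicals were formulated in surfactant-containing non-phytotoxic solvent and applied either as soil spray after planting (preemergence) or onto one- to two-leaf, 2–10 cm plants (postemergence).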

[4] = system: kochia (Kochia scoparia); experiment: Test A preemergence, visual plant response rating; conditions: for Kochia plant response rating: 125 g ai/ha, preemergence, 0 to 100 scale, 0 no effect, 100 complete control; for Kochia plant response rating (0 to 100 scale): 500 g ai/ha Preemergence, approx. 10 days
Procedure, shortened: as §1

[5] = system: pigweed (Amaranthus retroflexus); experiment: Test A preemergence, visual plant response rating; conditions: for Pigweed plant response rating: 125 g ai/ha, preemergence, 0 to 100 scale, 0 no effect, 100 complete control; for Pigweed plant response rating (0 to 100 scale): 500 g ai/ha Preemergence, approx. 10 days
Procedure, shortened: as §1

[6] = system: ragweed (common ragweed, Ambrosia elatior); experiment: Test A preemergence, visual plant response rating; conditions: for Ragweed plant response rating: 125 g ai/ha, preemergence, 0 to 100 scale, 0 no effect, 100 complete control; for Ragweed plant response rating (0 to 100 scale): 500 g ai/ha Preemergence, approx. 10 days
Procedure, shortened: as §1

[7] = system: Italian ryegrass (Lolium multiflorum); experiment: Test A postemergence, visual plant response rating; conditions: for Ryegrass, Italian plant response rating: 125 g ai/ha, 0 to 100 scale (0 no effect, 100 complete control)
Procedure, shortened: as §1

[8] = system: barnyardgrass (Echinochloa crus-galli); experiment: Test A postemergence, visual plant response rating; conditions: for Barnyardgrass plant response rating (0 to 100 scale): 500 g ai/ha, postemergence, 0 is no effect, 100 is complete control; for Barnyardgrass plant response rating: Postemergence, 125 g ai/ha, 0 to 100 scale (0 no effect, 100 complete control)
Procedure, shortened: as §1

[9] = system: blackgrass (Alopecurus myosuroides); experiment: Test A postemergence, visual plant response rating; conditions: for Blackgrass plant response rating (0 to 100 scale): 500 g ai/ha, postemergence, 0 is no effect, 100 is complete control; for Blackgrass plant response rating: Postemergence, 125 g ai/ha, 0 to 100 scale (0 no effect, 100 complete control)
Procedure, shortened: as §1

[10] = system: corn (Zea mays); experiment: Test A postemergence, visual plant response rating; conditions: for Corn plant response rating (0 to 100 scale): 500 g ai/ha, postemergence, 0 is no effect, 100 is complete control; for Corn plant response rating: Postemergence, 125 g ai/ha, 0 to 100 scale (0 no effect, 100 complete control)
Procedure, shortened: as §1

[11] = system: foxtail, giant (giant foxtail, Setaria faberii); experiment: Test A postemergence, visual plant response rating; conditions: for Foxtail, Giant plant response rating (0 to 100 scale): 500 g ai/ha, postemergence, 0 is no effect, 100 is complete control; for Foxtail, Giant plant response rating: Postemergence, 125 g ai/ha, 0 to 100 scale (0 no effect, 100 complete control)
Procedure, shortened: as §1

[12] = system: galium (catchweed bedstraw, Galium aparine); experiment: Test A postemergence, visual plant response rating; conditions: for Galium plant response rating (0 to 100 scale): 500 g ai/ha, postemergence, 0 is no effect, 100 is complete control; for Galium plant response rating: Postemergence, 125 g ai/ha, 0 to 100 scale (0 no effect, 100 complete control)
Procedure, shortened: as §1

[13] = system: kochia (Kochia scoparia); experiment: Test A postemergence, visual plant response rating; conditions: for Kochia plant response rating (0 to 100 scale): 500 g ai/ha, postemergence, 0 is no effect, 100 is complete control; for Kochia plant response rating: Postemergence, 125 g ai/ha, 0 to 100 scale (0 no effect, 100 complete control)
Procedure, shortened: as §1

[14] = system: pigweed (Amaranthus retroflexus); experiment: Test A postemergence, visual plant response rating; conditions: for Pigweed plant response rating (0 to 100 scale): 500 g ai/ha, postemergence, 0 is no effect, 100 is complete control; for Pigweed plant response rating: Postemergence, 125 g ai/ha, 0 to 100 scale (0 no effect, 100 complete control)
Procedure, shortened: as §1

[15] = system: ragweed (common ragweed, Ambrosia elatior); experiment: Test A postemergence, visual plant response rating; conditions: for Ragweed plant response rating (0 to 100 scale): 500 g ai/ha, postemergence, 0 is no effect, 100 is complete control; for Ragweed plant response rating: Postemergence, 125 g ai/ha, 0 to 100 scale (0 no effect, 100 complete control)
Procedure, shortened: as §1

[16] = system: wheat (Triticum aestivum); experiment: Test A postemergence, visual plant response rating; conditions: for Wheat plant response rating: 0 to 100 scale (0 no effect, 100 complete control)
Procedure, shortened: as §1

[17] = system: barnyardgrass (Echinochloa crus-galli); experiment: Test B flooded paddy test, visual plant response rating; conditions: 250 g ai/ha, Flood, applied to paddy water, 2-leaf stage, evaluated after 13 to 15 days
Procedure, shortened: (§2)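 Greenhouse paddy conditions applied: two-leaf plants, a 3 cm flood above the soil surface maintained throughout, and compound added to the water rather than the foliage. Plants were judged visually against controls at 13 to 15 days.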

[18] = system: ducksalad (Heteranhera limosa); experiment: as above; conditions: 250 g ai/ha, Flood, applied to paddy water, 2-leaf stage, evaluated after 13 to 15 days
Procedure, shortened: as §2

[19] = system: rice (Oryza sativa); experiment: as above; conditions: 250 g ai/ha, Flood, applied to paddy water, 2-leaf stage, evaluated after 13 to 15 days
Procedure, shortened: as §2

[20] = system: sedge, umbrella (small-flower umbrella sedge, Cyperus difformis); experiment: as above; conditions: 250 g ai/ha, Flood, applied to paddy water, 2-leaf stage, evaluated after 13 to 15 days
Procedure, shortened: as §2

[21] = 500 g ai/ha, postemergence, 0 is no effect, 100 is complete control

| Structure (SMILES) | Ryegrass, Italian plant response rating [1] | Ryegrass, Italian plant response rating (0 to 100 scale) [1] | Barnyardgrass plant response rating [2] | Barnyardgrass plant response rating (0 to 100 scale) [2] | Foxtail, Giant plant response rating [3] | Foxtail, Giant plant response rating (0 to 100 scale) [3] | Kochia plant response rating [4] | Kochia plant response rating (0 to 100 scale) [4] | Pigweed plant response rating [5] | Pigweed plant response rating (0 to 100 scale) [5] | Ragweed plant response rating [6] | Ragweed plant response rating (0 to 100 scale) [6] | Ryegrass, Italian plant response rating (0 to 100 scale) [7, 21] | Barnyardgrass plant response rating (0 to 100 scale) [8] | Barnyardgrass plant response rating [8] | Blackgrass plant response rating (0 to 100 scale) [9] | Blackgrass plant response rating [9] | Corn plant response rating (0 to 100 scale) [10] | Corn plant response rating [10] | Foxtail, Giant plant response rating (0 to 100 scale) [11] | also measured |
| --- | --- | --- | --- | --- | --- | --- | --- | --- | --- | --- | --- | --- | --- | --- | --- | --- | --- | --- | --- | --- | --- |
| Cc1nn(C)c(=O)c(C(=NOCC=CCl)c2ccc(F)c3ccccc23)c1O [Compound 106] | 60 | 90 | 50 | 90 | 100 | 100 | 0 | 20 | 50 | 80 | 40 | 80 | 100 | 90 | 80 | 90 | 80 | 30 | 20 | 70 | Ryegrass, Italian plant response rating ([7]; Postemergence): 70; Foxtail, Giant plant response rating [11]: 60; Galium plant response rating (0 to 100 scale) [12]: 90; Galium plant response rating [12]: 80; Kochia plant response rating (0 to 100 scale) [13]: 50; Kochia plant response rating [13]: 20; Pigweed plant response rating (0 to 100 scale) [14]: 80; Pigweed plant response rating [14]: 70; Ragweed plant response rating (0 to 100 scale) [15]: 90; Ragweed plant response rating [15]: 70; Wheat plant response rating (0 to 100 scale) [16, 21]: 50; Wheat plant response rating ([16]; Postemergence, 125 g ai/ha): 0; Plant response rating, Barnyardgrass (0 to 100 scale, 0 is no effect, 100 is complete control) [17]: 0; Plant response rating, Ducksalad (0 to 100 scale, 0 is no effect, 100 is complete control) [18]: 0; Plant response rating, Rice (0 to 100 scale, 0 is no effect, 100 is complete control) [19]: 0; Plant response rating, Sedge, Umbrella (0 to 100 scale, 0 is no effect, 100 is complete control) [20]: 0 |
| CON=C(c1ccc(C)s1)c1c(O)c(C)nn(C)c1=O (mixture of isomers) [Compound 144] | 0 | 0 | 0 | 0 | 0 | 0 | 0 | 0 | 0 | 0 | 0 | 0 | 0 | 0 | 0 | 0 | 0 | 0 | 0 | 0 | Ryegrass, Italian plant response rating (0 to 100 scale) ([7]; Postemergence, rate not given, approx. 10 days): 0; Foxtail, Giant plant response rating [11]: 0; Galium plant response rating (0 to 100 scale) [12]: 30; Galium plant response rating [12]: 0; Kochia plant response rating (0 to 100 scale) [13]: 0; Kochia plant response rating [13]: 0; Pigweed plant response rating (0 to 100 scale) [14]: 10; Pigweed plant response rating [14]: 0; Ragweed plant response rating (0 to 100 scale) [15]: 30; Ragweed plant response rating [15]: 0; Wheat plant response rating ([16]; Postemergence, 500 g ai/ha): 0; Wheat plant response rating (0 to 100 scale) ([16]; Postemergence, approx. 10 days): 0; Plant response rating, Barnyardgrass (0 to 100 scale, 0 is no effect, 100 is complete control) [17]: 0; Plant response rating, Ducksalad (0 to 100 scale, 0 is no effect, 100 is complete control) [18]: 0; Plant response rating, Rice (0 to 100 scale, 0 is no effect, 100 is complete control) [19]: 0; Plant response rating, Sedge, Umbrella (0 to 100 scale, 0 is no effect, 100 is complete control) [20]: 0 |
| CON=C(c1c(O)c(C)nn(C)c1=O)c1ccc(OC)c2ccccc12 [Compound 55] | 0 | 30 | 0 | 50 | 10 | 90 | 0 | 0 | 0 | 0 | 10 | 80 | 70 | 30 | 20 | 80 | 70 | 30 | 0 | 50 | Ryegrass, Italian plant response rating ([7]; Postemergence): 0; Foxtail, Giant plant response rating [11]: 20; Galium plant response rating (0 to 100 scale) [12]: 70; Galium plant response rating [12]: 50; Kochia plant response rating (0 to 100 scale) [13]: 30; Kochia plant response rating [13]: 10; Pigweed plant response rating (0 to 100 scale) [14]: 20; Pigweed plant response rating [14]: 0; Ragweed plant response rating (0 to 100 scale) [15]: 30; Ragweed plant response rating [15]: 0; Wheat plant response rating (0 to 100 scale) [16, 21]: 20; Wheat plant response rating ([16]; Postemergence, 125 g ai/ha): 0; Plant response rating, Barnyardgrass (0 to 100 scale, 0 is no effect, 100 is complete control) [17]: 0; Plant response rating, Ducksalad (0 to 100 scale, 0 is no effect, 100 is complete control) [18]: 0; Plant response rating, Rice (0 to 100 scale, 0 is no effect, 100 is complete control) [19]: 0; Plant response rating, Sedge, Umbrella (0 to 100 scale, 0 is no effect, 100 is complete control) [20]: 0 |
